Measured values from the NIST ThermoML archive (doi:10.1021/acs.jced.6b00577).
Numbers after ± are expanded uncertainties.

Conditions: Liquid, Frequency=8 MHz, Pulse-echo method

CCCC [butane]
Conditions	speed of sound [m/s]
199.99 K, 40128 kPa	1640.8 ± 0.79
199.99 K, 45132 kPa	1662 ± 0.8
199.99 K, 50136 kPa	1682.6 ± 0.81
200 K, 1101.4 kPa	1447.8 ± 0.72
200 K, 2102.1 kPa	1453.5 ± 0.72
200 K, 3102.8 kPa	1459.2 ± 0.72
200 K, 4103.5 kPa	1464.9 ± 0.72
200 K, 5104.2 kPa	1470.5 ± 0.72
200 K, 6105.1 kPa	1476 ± 0.73
200 K, 7105.9 kPa	1481.5 ± 0.73
200 K, 8106.6 kPa	1487 ± 0.73
200 K, 9107.3 kPa	1492.4 ± 0.73
200 K, 10108 kPa	1497.8 ± 0.74
200 K, 12610 kPa	1510.9 ± 0.74
200 K, 15112 kPa	1523.8 ± 0.75
200 K, 17613 kPa	1536.5 ± 0.75
200 K, 20115 kPa	1548.9 ± 0.75
200 K, 25119 kPa	1573.1 ± 0.76
200 K, 30123 kPa	1596.4 ± 0.77
200 K, 35126 kPa	1619 ± 0.78
200 K, 60143 kPa	1722.2 ± 0.82
200 K, 70150 kPa	1759.8 ± 0.84
200 K, 80157 kPa	1795.8 ± 0.85
200 K, 90164 kPa	1830.2 ± 0.86
200 K, 100171 kPa	1863.2 ± 0.88
201 K, 250.62 kPa	1437.2 ± 0.71
201 K, 600.55 kPa	1439.2 ± 0.71
201 K, 1100.5 kPa	1442.1 ± 0.71
201 K, 1101.5 kPa	1442.2 ± 0.71
201 K, 2101.9 kPa	1448 ± 0.72
201 K, 2102 kPa	1448 ± 0.72
201 K, 3102.6 kPa	1453.7 ± 0.72
201 K, 4103.4 kPa	1459.4 ± 0.72
201 K, 5104 kPa	1465 ± 0.72
220 K, 249.98 kPa	1330.5 ± 10
220 K, 599.68 kPa	1332.8 ± 0.67
220 K, 1100.7 kPa	1336.1 ± 0.67
220 K, 1100.8 kPa	1336.1 ± 0.67
220 K, 2101.6 kPa	1342.7 ± 0.68
220 K, 2101.8 kPa	1342.7 ± 0.68
220 K, 2102.1 kPa	1342.7 ± 0.68
220 K, 2103.4 kPa	1342.6 ± 0.68
220 K, 3102.3 kPa	1349.1 ± 0.68
220 K, 3104.1 kPa	1349.1 ± 0.68
220 K, 4103 kPa	1355.5 ± 0.68
220 K, 4104.7 kPa	1355.5 ± 0.68
220 K, 5103.6 kPa	1361.9 ± 0.68
220 K, 6104.2 kPa	1368.2 ± 0.68
220 K, 7104.9 kPa	1374.3 ± 0.69
220 K, 8105.5 kPa	1380.5 ± 0.69
220 K, 9106.2 kPa	1386.6 ± 0.69
220 K, 10107 kPa	1392.6 ± 0.69
220 K, 12609 kPa	1407.3 ± 0.7
220 K, 15111 kPa	1421.8 ± 0.71
220 K, 17612 kPa	1435.8 ± 0.71
220 K, 20114 kPa	1449.6 ± 0.72
220 K, 25118 kPa	1476.2 ± 0.73
220 K, 30121 kPa	1501.8 ± 0.74
220 K, 35125 kPa	1526.5 ± 0.75
220 K, 40129 kPa	1550.3 ± 0.76
220 K, 45133 kPa	1573.3 ± 0.76
220 K, 50136 kPa	1595.6 ± 0.77
220 K, 60144 kPa	1638.2 ± 0.79
220 K, 70151 kPa	1678.5 ± 0.81
220 K, 80158 kPa	1716.8 ± 0.82
220 K, 90165 kPa	1753.2 ± 0.83
220 K, 100172 kPa	1788.2 ± 0.85
240 K, 252.21 kPa	1219.3 ± 0.63
240 K, 602.15 kPa	1222 ± 0.63
240 K, 1103 kPa	1225.8 ± 0.63
240 K, 2103.5 kPa	1233.3 ± 0.63
240 K, 2104.3 kPa	1233.3 ± 0.63
240 K, 3104.1 kPa	1240.7 ± 0.64
240 K, 3105.1 kPa	1240.7 ± 0.64
240 K, 4104.7 kPa	1248 ± 0.64
240 K, 4105.9 kPa	1248 ± 0.64
240 K, 5105.3 kPa	1255.2 ± 0.64
240 K, 5106.6 kPa	1255.2 ± 0.64
240 K, 6107.3 kPa	1262.3 ± 0.64
240 K, 7108.1 kPa	1269.3 ± 0.65
240 K, 8108.8 kPa	1276.2 ± 0.65
240 K, 9109.5 kPa	1283.1 ± 0.65
240 K, 10110 kPa	1289.8 ± 0.65
240 K, 12612 kPa	1306.4 ± 0.66
240 K, 15113 kPa	1322.5 ± 0.67
240 K, 17615 kPa	1338.1 ± 0.67
240 K, 20116 kPa	1353.3 ± 0.68
240 K, 25120 kPa	1382.7 ± 0.69
240 K, 30123 kPa	1410.7 ± 0.7
240 K, 35127 kPa	1437.6 ± 0.71
240 K, 40130 kPa	1463.4 ± 0.72
240 K, 45134 kPa	1488.2 ± 0.73
240 K, 50138 kPa	1512.2 ± 0.74
240 K, 60145 kPa	1557.8 ± 0.76
240 K, 70152 kPa	1600.8 ± 0.78
